For the test, the system named is CEM cells HIV-1 protection, formazan growth assay. Nature of the test: NCI AIDS Antiviral Assay. The note with it: for IC50: measured here: growth of uninfected CEM cells. In a few lines:
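Five concentrations of each compound were applied to infected and uninfected human CEM cells. Protection from HIV-1 was judged from growth measured with a soluble formazan assay.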

Where “and” joins values, the source holds several entries; their conditions need not be identical. Equal values may be shown once. Calls of active or inactive are those of the source.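 How the source made its calls: active means compounds giving half or more protection of infected cells from virus-caused growth loss, again on retest; inactive means the rest.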 A value given as a limit tells only on which side of the number the result lay.

As for `O=[N+]([O-])c1ccc(CSc2c3ccccc3nc3ccccc23)cc1`, the EC50 is over 200 µM and the IC50 was determined as 3.39 µM. For `CCN(CC)CCNc1ccc([N+](=O)[O-])c2nc3ccc(OC)cc3c(N)c12`, the EC50 is over 200 µM and the IC50 came out at 0.331 µM. For `Cc1nn2c(=O)c([N+](=O)[O-])c(/C=C/c3ccc(F)cc3)nc2s1` the same measures were over 200 µM and 5.25 µM.

Turning to `c1ccc2c(c1)n1c(N3CCOCC3)[n+]3ccccc3c1c1c3cccc[n+]3c(N3CCOCC3)n21`, the EC50 is 123 µM and the IC50 came to 145 µM. `C/C(N=NS(=O)(=O)c1ccc([N+](=O)[O-])cc1)=C1\C=CC=CN1O`: the outcome was inactive. As to `CC(C)=CC(=O)C1c2cccc(O)c2C(=O)c2c(O)cc(C)cc21` (stereo not drawn), the EC50 is over 30.9 µM and the IC50 was 10.2 µM. Consider `O=C(/C(=N/Nc1ccc([N+](=O)[O-])cc1)c1ccccc1)c1ccccc1`, for which the outcome was inactive.

Consider `COc1ccc(C[C@H](N)C(=O)N2C[C@@H](CO)C[C@@H](n3ccc(=O)[nH]c3=O)C2)cc1`, for which the EC50 is over 309 µM and the concentration for half-maximal inhibition (IC50) is over 309 µM. As to `CCOC(=O)C12CCSC1C1(C#N)C(C#N)=CC2(N=P(c2ccccc2)(c2ccccc2)c2ccccc2)n2c(=O)n(-c3ccccc3)c(=O)n21` (stereo not drawn), the EC50 was over 26.3 µM and the IC50 was over 26.3 µM.

`O=C1CCCC2=C1CC1=C(CCCC1=O)N2c1ccccc1C(=O)O`: the EC50 is over 200 µM and the IC50 is over 200 µM. Consider `CC1=NN(c2ccccc2)C(=O)C1=C1SCCCS1`, for which the EC50 is over 46.8 µM and the IC50 was over 46.8 µM. Regarding `Cc1c(-c2ccc(N)cc2)c(=O)oc2cc(O)ccc12`, the EC50 is over 200 µM and the IC50 is over 200 µM.

For `O=C1OC2OC3OC(=O)C4C3CC2C14` (stereo not drawn), the EC50 is over 257 µM and the IC50 is over 257 µM.

With `O=C1CC(c2c(-c3ccccc3)[nH]c3ccccc23)C(=O)N1` (stereo not drawn), the result was inactive. As to `O=C(Nc1ccccc1)OCCN=c1c2ccccc2ccc2ccccc12`, the EC50 was 17 µM and the IC50 stood at 24.5 µM.

Consider `CCOC(=O)/C(=C\n1c(=O)sc2ccccc21)C(=O)c1ccccc1`, for which the EC50 was over 200 µM and the half-maximal inhibitory concentration (IC50) was 42.7 µM. Compound `CCOCc1ccccc1C1(O)c2ccccc2Oc2ccccc21` came in with an EC50 of over 200 µM and an IC50 of 186 µM. Regarding `COc1ccc2c(c1)CCC1=C2CC(=O)N2CCCCN12`, the EC50 was over 91.2 µM and the half-inhibitory concentration (IC50) was over 91.2 µM. For the compound `COc1cc(NS(=O)(=O)c2ccc(C)cc2)c2nccnc2c1`, the EC50 was over 204 µM and the IC50 came out at 77.6 µM. For `C=CC1OC(CCCOC(=O)C(C)(C)C)O[C@@H]1CC` (stereo partly drawn), in that order: over 200 µM and over 200 µM. For `NC(C(=O)O)C(O)C(=O)O` (stereo not drawn), the outcome was inactive. Take `C[N+](C)(C)CCC(=O)CC[N+](C)(C)C`: the EC50 is over 8.32 µM and the IC50 was over 8.32 µM. On to `COc1ccc(-c2cc(-c3ccco3)c(C#N)c(=O)n2C2OC(COC(C)=O)C(OC(C)=O)C(OC(C)=O)C2OC(C)=O)cc1` (stereo not drawn), for which the EC50 is over 11.5 µM and the IC50 was over 11.5 µM. Regarding `CCCCN1[C@@H](C)C=C[C@@H](C)S1=O` (stereo partly drawn), the result was inactive. For `Cc1ccc(C2=Nc3c(c(C)nn3-c3ccccc3)N=C(C(=O)O)C2)cc1`, the EC50 was over 200 µM and the IC50 was 75.9 µM. Take `CC[C@H](OCc1ccccc1)/C(C)=C/C[C@@H](C)CO`: the EC50 was over 27.5 µM and the IC50 was over 27.5 µM. Turning to `CC(C)=C[C@@H]1C[C@H](C)[C@H]2CC[C@H](C)[C@H]3C(=O)C(O)=C(C)C(=O)[C@]123`, the EC50 is over 200 µM and the IC50 was found to be 105 µM. Regarding `CCCCNC1CCCCC[C@H]1O` (stereo partly drawn), the EC50 is over 1120 µM and the 50% inhibitory concentration (IC50) is over 1120 µM. Turning to `O=[N+]([O-])c1ccc(OCc2nc3ccccc3[nH]2)cc1`, the EC50 is over 200 µM and the IC50 is 87.1 µM.

For `CC(=O)OC1CCn2nnc(CO[Si](C)(C)C(C)(C)C)c21` (stereo not drawn), the outcome was inactive. Turning to `CC(C)(C)c1noc2c1C(=O)c1ccccc1-2`, the EC50 is over 200 µM and the IC50 came to 83.2 µM. For `O=C(NCCCCNCCCNC(=O)c1cc(-c2ccccc2)nc2ccccc12)c1cc(-c2ccccc2)nc2ccccc12`, the EC50 is over 20 µM and the half-maximal inhibitory concentration (IC50) stood at 3.16 µM. As to `C=C1c2nc3ccccc3n2C=C(c2ccc(Cl)cc2)N1c1ccc(OC)cc1`, the EC50 is over 200 µM and the IC50 was 18.6 µM. Turning to `O=[N+]([O-])c1ccccc1Sc1ccccc1`, the EC50 is over 100 µM and the concentration for half-maximal inhibition (IC50) worked out at 79.4 µM. Turning to `Nn1c(Cc2ccc([N+](=O)[O-])cc2)n[nH]c1=O`, the EC50 was over 200 µM and the IC50 was over 200 µM. For `Cc1c(C2Cc3ccccc3N2C(=O)/C=C\C(=O)O)c2ccccc2n1C` (stereo not drawn), the EC50 was over 692 µM and the IC50 was 14.5 µM. As for `O=C1CCCC/C1=C\c1ccc([N+](=O)[O-])cc1`, the EC50 is over 200 µM and the IC50 is 6.03 µM.

Take `C/C(=N\NC(=S)N1CC2CCC(CC2)C1)c1cccc(C)n1`: the EC50 was over 31.6 µM and the IC50 came to 0.55 µM. Consider `O=S(=O)([O-])C(F)(F)F.[Ru+2].[Ru+2].c1ccc2c(c1)Cc1ccccc1-2`, for which the EC50 is over 100 µM and the IC50 was over 100 µM. For `O=C(Nc1ccccn1)NC1CCCCC1`, the EC50 is over 200 µM and the IC50 came out at 195 µM. As for `O=S(O)CCCCCSSSCCCCCS(=O)O`, the outcome was inactive. As to `CC12CCCC3(CC(=O)C(C)(C)C3C(=O)C1)C2` (stereo not drawn), the EC50 is over 200 µM and the IC50 was over 200 µM. `CCOC(=O)c1c(N)n(-c2ccccc2)c(=S)n(-c2ccccc2)c1=O`: the EC50 is over 178 µM and the concentration for half-maximal inhibition (IC50) is over 178 µM. As to `COc1cc(/C=C/C(=O)C(C)(C)C)cc(OC)c1OC`, the EC50 was over 178 µM and the IC50 was determined as 11.5 µM.

As for `CC1(Cl)C(=O)NC(=O)NC1O` (stereo not drawn), the EC50 is over 200 µM and the IC50 is over 200 µM.

For `COC(OC)c1cccnc1C`, the EC50 was over 1480 µM and the half-maximal inhibitory concentration (IC50) is 1050 µM. For `Cc1cccc(-c2nc(=S)[nH][nH]2)c1`, in that order: over 955 µM and 417 µM. With `CCCOC(=O)Nc1ccc2nc(N(C)C)sc2c1`, the EC50 was over 245 µM and the IC50 turned out to be 66.1 µM. With `C=CC1C(OC2OC(CO)C(O)C(O)C2O)OC=C(C(=O)OC)C1CC=O` (stereo not drawn), the EC50 was over 646 µM and the concentration for half-maximal inhibition (IC50) is over 646 µM. In the case of `CCCCCCCCOC1OC(COC(C)=O)C(OC(C)=O)C(OC(C)=O)C1OC(C)=O` (stereo not drawn), the EC50 is over 100 µM; the half-inhibitory concentration (IC50) is > 100 µM and 95.5 µM.

For the compound `COc1cc2c(=O)cnoc2cc1O`, the EC50 is over 200 µM and the IC50 was determined as 26.3 µM.

In the case of `c1ccc(N2CC3CSc4ccc5ccccc5c4C3=N2)cc1` (stereo not drawn), the EC50 was over 200 µM and the IC50 is over 200 µM. Regarding `COc1cc(/C=N/N=C(\N)NO)cc(OC)c1OC`, the EC50 was over 200 µM and the half-inhibitory concentration (IC50) is 105 µM. For `CCOC(=O)C1N=[N+](c2ccccc2)C(=O)/C1=C\n1c(=S)[nH]c2ccc([N+](=O)[O-])cc21` (stereo not drawn) the same measures were over 200 µM and 107 µM. Turning to `NC(CSS(=O)(=O)O)=NC1CC1`, the EC50 was over 200 µM and the IC50 was over 200 µM.

These data come from PubChem BioAssay AID179 (DTP/NCI, 2004).
